Test results as given in article PMC12856912, “Structure-Guided Semisynthesis of Blasticidin S–Amicetin Chimeras as Selective Ribosome Inhibitors” (Journal of the American Chemical Society, 2026).
Values after ≈ are worked out from the molar mass of the structure shown.

Tests used:
MRSA ATCC 43300 = assay: Antibacterial MIC assay, serial dilution; format: cell-based, Staphylococcus aureus; conditions: for Selectivity index (CC50/MIC) MRSA 43300: CC50 Vero cells / MIC; for MIC: Staphylococcus aureus, read-out: MIC MRSA ATCC 43300
Experimental: (§1) Media and solutions were autoclaved or sterile filtered prior to use and mani pulations were carri ed out in a laminar flow hood. Antibacterial t esting was performed in polypropylene 96-well flat bottom plates. The minimal inhibitory concentration of blasticidin S (1) hydrochloride, methyl ester (3) trihydrochloride, P10 (2) tri-T FA , phenet hyl amide (4) tri -T FA , an d blastimidines M 19– 22, A, 29–32, P 37–40, and C 43–46 (salt forms as described in the te xt) were assessed against Staphylococcus aureus ΔNorA, S. aureus ATCC 6538P, methicillin-resistant S. aureus (MRSA) ATCC 43300, Enterococcus faecalis ATCC 29212, vancomycin- resistant Enterococcus, Klebsiella pneumoniae ATCC 29665, Pseudomonas aeruginosa,and Acinetobacter baumannii ATCC 17978 using serial dilutions. Doxycycline (Gold Bio) as a positive control and the vehicle as a negative control. Stock solutions of each compound were prepared at 2.56 mg/mL in 50% DMSO/water and serially diluted in 50% DMSO/water to create master plates. From the master plates, 10 μ L o f each dilution was applied to test plates using a Bravo automated liquid transfer system (Agilent).
(§2) Bacteria previously grown overnight (37 °C, 120–200 RPM), in LB broth were diluted to an OD600 of 0.05 in cation-adjusted Mueller-Hinton broth (CAMHB), grown to an OD600 of ~0.5, and diluted to an OD600 of 0.004 in CAMHB . These diluted cultures were applied to the test plates (190 μL per test well) resulting in final concentrations of the test compounds of 128–1 μg/ m L.
(§3) Growth controls (wells with inoculated media but no vehicle or test compounds) were included to assess any potential toxicity from the vehicle. Th e plates were in cubated at 37 °C for 16–18 h, except fo r VRE and E. faecalis, which w ere in cub ated at 37 °C fo r 24 h. Inh ibition was determined by measuring the optical density at 600 nm (OD60 0) with a Cytation 3 pl ate read er (BioTek). The optical density measurem ents were no rmalized to the positive and negative controls and the vehicle and growth controls were compared and found to b e indistinguishable, indicating no toxicity from […]
(§4) the vehicle used. The MIC was the lowest concentration that inhibited >90% of growth. Two biological replicates were performed in duplicate. MIC values are reported as a range from […]

S. aureus ATCC 6538P = assay: Antibacterial MIC assay, serial dilution; format: cell-based, Staphylococcus aureus; conditions: for Selectivity index (CC50/MIC) S. aureus 6538P: CC50 Vero cells / MIC; for MIC: Staphylococcus aureus, ATCC 6538P / ATCC 6539P, read-out: MIC S. aureus ATCC 6539P
Experimental: as §1, §2, §3, §4

S. aureus ΔNorA = assay: Antibacterial MIC assay, serial dilution; format: cell-based, Staphylococcus aureus; conditions: for Selectivity index (CC50/MIC) S. aureus ΔNorA: CC50 Vero cells / MIC; for MIC: Staphylococcus aureus, read-out: MIC S. aureus ∆NorA
Experimental: as §1, §2, §3, §4

[1] = test system: Methicillin resistant Staphylococcus epidermidis (MRSE) ATCC 35984 NRS101; assay: Antibacterial MIC assay, serial dilution; format: cell-based; conditions: for Selectivity index (CC50/MIC) MRSE 35984: CC50 Vero cells / MIC; for MIC: Staphylococcus epidermidis, read-out: MIC Methicillin resistant Staphylococcus epidermidis (MRSE) ATCC 35984 NRS101
[2] = test system: Methicillin resistant S. aureus (MRSA) USA300; assay: Antibacterial MIC assay, serial dilution; format: cell-based, Staphylococcus aureus; conditions: for Selectivity index (CC50/MIC) MRSA USA300: CC50 Vero cells / MIC; for MIC: Staphylococcus aureus, read-out: MIC Methicillin resistant S. aureus (MRSA) USA300
[3] = test system: Vancomycin resistant E. faecalis NR-31972 (VRE); assay: Antibacterial MIC assay, serial dilution; format: cell-based, Enterococcus faecalis; conditions: for Selectivity index (CC50/MIC) VRE NR-31972: CC50 Vero cells / MIC; for MIC: Enterococcus faecalis, VRE, 24 h, read-out: MIC Vancomycin resistant E. faecalis NR-31972 (VRE)
Experimental: as §1, §2, §3, §4

[4] = test system: Acinetobacter baumannii ATCC 17978; assay: Antibacterial MIC assay, serial dilution; format: cell-based; conditions: ATCC17978, range from biological replicates
Experimental: as §1, §2, §3, §4

[5] = test system: Enterococcus faecalis ATCC 29212; assay: Antibacterial MIC assay, serial dilution; format: cell-based; conditions: for Selectivity index (CC50/MIC) E. faecalis 29212: CC50 Vero cells / MIC; for MIC: Enterococcus faecalis, ATCC 29112 / ATCC 29212, 24 h, read-out: MIC E. faecalis ATCC 29112
Experimental: as §1, §2, §3, §4

[6] = test system: Klebsiella pneumoniae ATCC 29665; assay: Antibacterial MIC assay, serial dilution; format: cell-based; conditions: for Selectivity index (CC50/MIC) K. pneumoniae: CC50 Vero cells / MIC; for MIC: Klebsiella pneumoniae, ATCC29665, range from biological replicates, read-out: MIC K. pneumoniae ATCC-29665
Experimental: as §1, §2, §3, §4

Pseudomonas aeruginosa = assay: Antibacterial MIC assay, serial dilution; format: cell-based; conditions: for Selectivity index (CC50/MIC) P. aeruginosa: CC50 Vero cells / MIC; for MIC: Pseudomonas aeruginosa, range from biological replicates, read-out: MIC P. aeruginosa
Experimental: as §1, §2, §3, §4

[7] = test system: Vancomycin resistant Enterococcus faecium NR-31909 (VRE); assay: Antibacterial MIC assay, serial dilution; format: cell-based; conditions: for Selectivity index (CC50/MIC) VRE NR-31909: CC50 Vero cells / MIC; for MIC: Enterococcus faecium, VRE, 24 h, read-out: MIC Vancomycin resistant Enterococcus faecium NR-31909 (VRE)
Experimental: as §1, §2, §3, §4

[8] = test system: Escherichia coli BAA-2452; assay: Antibacterial MIC assay, serial dilution; format: cell-based; conditions: BAA2452, read-out: MIC Escherichia coli BAA-2452
[9] = Cytotoxicity assay (MTS/PMS); format: cell-based; conditions: monkey, Vero cells (monkey kidney epithelial cells); 24 h treatment, MTS/PMS, average of three biological replicates; read-out: CC50 against Vero cells
Experimental: The potential cytotoxic eff ect of the test compounds was investigated using Vero cells (monkey kidney epitheli al cells) following est ablished protocols.3 Briefly, Vero cells were plated into 96-well plates supplemented with Dulbecco's Modified Eagle Medium (DMEM) containing 10% fetal bovine serum (FBS). The cells were placed in a humidified 37 °C environment for incubation with 5% CO₂ for 24 h to allow proper adherence and growth. Following the incubation period, the culture medium was replaced with fresh DMEM containing serial dilutions of the test compounds, while the v ehicle alon e w as used as a negative control. The treated cells were incubated for an additional 24 h. To assess cell viability, the MTS/PMS reagent was added to each well and incubat ed for 4 h. A microplate reader (S ynergy H1, BioTek, USA) was used to m easure absorbance at 490 nm. Al l experiments wer e cond ucted usingthree biologi cal replicates .
Ta b l e S2. CC50 valuesa (µg/mL) against Vero cells […]
aValues at which the cell viability (normalized to vehicle control) was 50%. […]

Compound	Selectivity index (CC50/MIC) MRSA 43300 (MRSA ATCC 43300)	MIC (MRSA ATCC 43300)	Selectivity index (CC50/MIC) S. aureus 6538P (S. aureus ATCC 6538P)	MIC (S. aureus ATCC 6538P)	Selectivity index (CC50/MIC) S. aureus ΔNorA (S. aureus ΔNorA)	MIC (S. aureus ΔNorA)	Selectivity index (CC50/MIC) MRSE 35984 [1]	MIC [1]	Selectivity index (CC50/MIC) MRSA USA300 [2]	MIC [2]	Selectivity index (CC50/MIC) VRE NR-31972 [3]	MIC [3]	MIC [4]	Selectivity index (CC50/MIC) E. faecalis 29212 [5]	MIC [5]	MIC [6]	Selectivity index (CC50/MIC) P. aeruginosa (Pseudomonas aeruginosa)	MIC (Pseudomonas aeruginosa)	Selectivity index (CC50/MIC) VRE NR-31909 [7]	MIC [7]	further results
CNc1ccc(C(=O)Nc2ccn([C@H]3C=C[C@H](NC(=O)C[C@@H](N)CCN(C)C(=N)N)[C@@H](C(=O)O)O3)c(=O)n2)cc1 [Blastimidine C3]	<1.1	> 128 µg/mL	<1.1	> 128 µg/mL	<1.1	> 128 µg/mL	<1.1	> 128 µg/mL	1.1	128 µg/mL (≈ 230 µM)	1.1	128 µg/mL (≈ 230 µM)	> 128 µg/mL	2.2	64 µg/mL (≈ 115 µM)	64 to 128 µg/mL (≈ 115 to 230 µM)	<1.1	> 128 µg/mL	2.2	64 µg/mL (≈ 115 µM)	Selectivity index (CC50/MIC) K. pneumoniae [6]: 1.7; MIC [8]: > 128 µg/mL; CC50 at 24 h [9]: 142 µg/mL (≈ 256 µM)
COC(=O)[C@H]1O[C@@H](n2ccc(N)nc2=O)C=C[C@@H]1NC(=O)C[C@@H](N)CCN(C)C(=N)N [Blastimidine M1, blasticidin S methyl ester]	1.3	16 to 32 µg/mL (≈ 36.7 to 73.3 µM)	1.3	16 to 32 µg/mL (≈ 36.7 to 73.3 µM)	0.3	64 to 128 µg/mL (≈ 147 to 293 µM)	1.8	16 µg/mL (≈ 36.7 µM)	3.6	8 µg/mL (≈ 18.3 µM)	0.9	32 µg/mL (≈ 73.3 µM)	128 µg/mL (≈ 293 µM)	1.8	16 µg/mL (≈ 36.7 µM)	64 µg/mL (≈ 147 µM)	0.4	64 µg/mL (≈ 147 µM)	0.4	64 µg/mL (≈ 147 µM)	Selectivity index (CC50/MIC) K. pneumoniae [6]: 0.4; MIC [8]: 8 µg/mL (≈ 18.3 µM); CC50 at 24 h [9]: 28 µg/mL (≈ 64.2 µM)
CN(CC[C@H](N)CC(=O)N[C@H]1C=C[C@H](n2ccc(N)nc2=O)O[C@@H]1C(=O)NCCc1ccccc1)C(=N)N [Blastimidine P1, blasticidin S phenethylamide]	7.3	32 µg/mL (≈ 60.9 µM)	15	16 µg/mL (≈ 30.4 µM)	1.8	128 µg/mL (≈ 244 µM)	59	4 µg/mL (≈ 7.61 µM)	20	8 to 16 µg/mL (≈ 15.2 to 30.4 µM)	15	16 µg/mL (≈ 30.4 µM)	> 128 µg/mL	15	16 µg/mL (≈ 30.4 µM)	> 128 µg/mL	2.8	64 to 128 µg/mL (≈ 122 to 244 µM)	1.8	128 µg/mL (≈ 244 µM)	MIC [8]: > 128 µg/mL; CC50 at 24 h [9]: 235 µg/mL (≈ 447 µM)
